Molecular target: T1, purified recombinant human SYK360-635 (Homo sapiens, UniProt P43405)
T1 construct: truncated construct of Spleen Tyrosine Kinase aa 360-635; GST; made in house
Assay: SYK kinase assay: 33P γATP incorporation into biotinylated peptide substrate, IC50 determination
Type: biochemical
Details: SYK 0.5 nM, ATP 20 μM, DYE peptide 5 μM, 30° C. 15 min; read-out: IC50 h-syk-gst-sf9-c (inactive-dephosphorylated)
Procedure: Determination of IC50 of Spleen Tyrosine Kinase (SYK) Inhibition:
SYK kinase assay is a standard kinase assay adapted to a 96 well plate format. This assay is performed in 96-well format for IC50 determination with […] which represented 10 half log dilutions and a 40 μL reaction volume. The assay measures the incorporation of radiolabeled ^33P γATP into an N-terminally biotinylated peptide substrate, derived from naturally occurring phosphoacceptor consensus sequence (Biotin-11aa DY*E). Phosphorylated products were detected upon termination of reactions with EDTA and the addition of Streptavidin coated beads.
Assay plates: 96-well MultiScreen 0.65 um filter plates (Millipore Cat. No.: MADVNOB10)
BSA: Bovine Serum Albumin Fraction V, fatty acid free (Roche Diagnostics GmbH, Cat. No. 9100221) diluted to a final concentration of 0.1%
Assay Dilution Buffer (ADB): 50 mM HEPES, 0.1 mM EGTA, 0.1 mM Na Vanadate, 0.1 mM β-glycerophosphate, 10 mM MgCl2, 1 mM DTT, 0.1% BSA, pH 7.5
Bead wash buffer: 10 g/L PBS (Phosphate buffered saline) with 2M NaCl+1% phosphoric acid.
DMSO and the mixture was incubated for 10 min at RT.
The kinase reaction was initiated by the addition of 10 μL 4× substrate cocktail containing the DYE peptide substrate [0 or 5 μM], ATP [20 μM] and ^33PγATP [2 μCi/r×n]. After incubation at 30° C. for 15 min, the reaction was terminated by the transfer of 25 μL of the reaction sample to a 96 well 0.65 μm Millipore MADVNOB membrane/plate containing 200 μL 5 mM EDTA and 20% Streptavidine coated beads in PBS.
After the last wash membrane/plates were transferred to an adaptor plate, heat dried for 15 min at 60° C., and 50 μL scintillation cocktail was added to each well and 4 h later the amount of radioactivity was counted in a top counter.

Row | SMILES | IC50
1 | COCC1CCCN1c1cccc(Nc2nc(-c3cccc(C(=O)O)c3)nc3scnc23)c1 (stereo not shown) [Compound I-28, 3-{7-[3-(2-Methoxymethyl-pyrrolidin-1-yl)-phenylamino]-thiazolo[5,4-d]pyrimidin-5-yl}-benzoic acid] | 3130 nM
2 | COc1ccc(Nc2nc(N3CCC(NC(=O)c4ccc5[nH]c(=O)[nH]c5c4)C3)nc3scnc23)cc1OC (stereo not shown) [Compound I-14, N-(1-(7-(3,4-Dimethoxyphenylamino)thiazolo[5,4-d]pyrimidin-5-yl)pyrrolidin-3-yl)-2-oxo-2,3-dihydro-1H-benzo[d]imidazole-5-carboxamide] | 487 nM
3 | COc1ccc(Nc2nc(N3CCCC(C(=O)Nc4ccc(-c5nnc(S)o5)cc4)C3)nc3scnc23)cc1OC (stereo not shown) [Compound I-51, 1-(7-(3,4-Dimethoxyphenylamino)thiazolo[5,4-d]pyrimidin-5-yl)-N-(4-(5-mercapto-1,3,4-oxadiazol-2-yl)phenyl)piperidine-3-carboxamide] | 156 nM
4 | COc1ccc(Nc2nc(N3CCCC(C(=O)Nc4ccc5c(c4)C(=O)NC5=O)C3)nc3scnc23)cc1OC (stereo not shown) [Compound I-50, 1-(7-(3,4-Dimethoxyphenylamino)thiazolo[5,4-d]pyrimidin-5-yl)-N-(1,3-dioxoisoindolin-5-yl)piperidine-3-carboxamide] | 1920 nM
5 | COc1ccc(Nc2nc(-c3cccc(C(=O)Nc4ccc5[nH]ncc5c4)c3)nc3scnc23)cc1OC [Compound I-18, 3-[7-(3,4-Dimethoxy-phenylamino)-thiazolo[5,4-d]pyrimidin-5-yl]-N-(1H-indazol-5-yl)-benzamide] | 980 nM
6 | O=C(O)c1cccc(-c2nc(Nc3cccc(N4C[C@H]5CC[C@@H](C4)O5)c3)c3ncsc3n2)c1 [Compound I-34, 3-{7-[(1R,5S)-3-(8-Oxa-3-aza-bicyclo[3.2.1]oct-3-yl)-phenylamino]-thiazolo[5,4-d]pyrimidin-5-yl}-benzoic acid] | 2470 nM
7 | COc1ccc(Nc2nc(N3CCCC(C(=O)Nc4ccc5c(c4)CNC5=O)C3)nc3scnc23)cc1OC (stereo not shown) [Compound I-46, 1-(7-(3,4-Dimethoxyphenylamino)thiazolo[5,4-d]pyrimidin-5-yl)-N-(1-oxoisoindolin-5-yl)piperidine-3-carboxamide] | 1030 nM
8 | COc1ccc(Nc2nc(N3CCCC(C(=O)Nc4ccc5c(c4)CC(=O)N5)C3)nc3scnc23)cc1OC (stereo not shown) [Compound I-40, 1-(7-(3,4-Dimethoxyphenylamino)thiazolo[5,4-d]pyrimidin-5-yl)-N-(2-oxoindolin-5-yl)piperidine-3-carboxamide] | 5410 nM
9 | C[C@H]1CCCN1c1cccc(Nc2nc(-c3ccc(C(N)=O)cc3)nc3scnc23)c1 [Compound I-62, 4-{7-[3-((S)-2-Methyl-pyrrolidin-1-yl)-phenylamino]-thiazolo[5,4-d]pyrimidin-5-yl}-benzamide] | 337 nM
10 | COc1ccc(Nc2nc(-c3cccc(C(=O)O)c3)nc3scnc23)cc1OC [Compound I-1, 3-[7-(3,4-Dimethoxy-phenylamino)-thiazolo[5,4-d]pyrimidin-5-yl]-benzoic acid] | 421 nM
11 | COc1ccc(Nc2nc(N3CCCC(C(=O)Nc4ccc(C(=O)O)c(O)c4)C3)nc3scnc23)cc1OC (stereo not shown) [Compound I-47, 4-(1-(7-(3,4-Dimethoxyphenylamino)thiazolo[5,4-d]pyrimidin-5-yl)piperidine-3-carboxamido)-2-hydroxybenzoic acid] | 71 nM
12 | COc1ccc(Nc2nc(N3CCC(NC(=O)c4ccc(C(=O)O)nc4)C3)nc3scnc23)cc1OC (stereo not shown) [Compound I-39, 5-(1-(7-(3,4-Dimethoxyphenylamino)thiazolo[5,4-d]pyrimidin-5-yl)pyrrolidin-3-ylcarbamoyl)picolinic acid] | 129 nM
13 | O=C(O)c1cccc(-c2nc(Nc3cccc(C(F)(F)F)c3)c3ncsc3n2)c1 [Compound I-57, 3-[7-(3-Trifluoromethyl-phenylamino)-thiazolo[5,4-d]pyrimidin-5-yl]-benzoic acid] | 4250 nM
14 | COc1ccc(Nc2nc(-c3cccc(C(N)=O)c3)nc3scnc23)cc1OC [Compound I-68, 3-[7-(3,4-Dimethoxy-phenylamino)-thiazolo[5,4-d]pyrimidin-5-yl]-benzamide] | 233 nM
15 | COc1ccc(Nc2nc(N3CCCC(C(=O)Nc4ccc5cn[nH]c5c4)C3)nc3scnc23)cc1OC (stereo not shown) [Compound I-45, 1-(7-(3,4-Dimethoxyphenylamino)thiazolo[5,4-d]pyrimidin-5-yl)-N-(1H-indazol-6-yl)piperidine-3-carboxamide] | 922 nM
16 | COc1ccc(Nc2nc(-c3ccc(C(=O)NCCc4ccncc4)cc3)nc3scnc23)cc1OC [Compound I-20, 4-[7-(3,4-Dimethoxy-phenylamino)-thiazolo[5,4-d]pyrimidin-5-yl]-N-(2-pyridin-4-yl-ethyl)-benzamide] | 566 nM
17 | COc1ccc(Nc2nc(-c3ccc(C(=O)NCCN(C)C)cc3)nc3scnc23)cc1OC [Compound I-66, 4-(7-(3,4-Dimethoxyphenylamino)thiazolo[5,4-d]pyrimidin-5-yl)-N-(2-(dimethylamino)ethyl)benzamide] | 278 nM
18 | COc1ccc(Nc2nc(-c3cccc(/C=C/c4ccc(C(=O)O)cc4)c3)nc3scnc23)cc1OC [Compound I-32, (E)-4-(3-(7-(3,4-Dimethoxyphenylamino)thiazolo[5,4-d]pyrimidin-5-yl)styryl)benzoic acid] | 60 nM
19 | COc1ccc(Nc2nc(-c3ccc(C(N)=O)cc3)nc3scnc23)cc1OC [Compound I-64, 4-[7-(3,4-Dimethoxy-phenylamino)-thiazolo[5,4-d]pyrimidin-5-yl]-benzamide] | 113 nM
20 | COc1ccc(Nc2nc(N3CCCC(C(=O)NC4CNC(=O)C4)C3)nc3scnc23)cc1OC (stereo not shown) [Compound I-48, 1-(7-(3,4-Dimethoxyphenylamino)thiazolo[5,4-d]pyrimidin-5-yl)-N-(5-oxopyrrolidin-3-yl)piperidine-3-carboxamide] | 4210 nM
21 | COc1ccc(Nc2nc(N3CCC(NC(=O)c4ccc5cn[nH]c5c4)C3)nc3scnc23)cc1OC (stereo not shown) [Compound I-11, N-(1-(7-(3,4-Dimethoxyphenylamino)thiazolo[5,4-d]pyrimidin-5-yl)pyrrolidin-3-yl)-1H-indazole-6-carboxamide] | 406 nM
22 | C[C@H]1CCCN1c1cccc(Nc2nc(N3CCCC(O)C3)nc3scnc23)c1 (stereo partly drawn) [Compound I-59, 1-(7-(3-((S)-2-Methylpyrrolidin-1-yl)phenylamino)thiazolo[5,4-d]pyrimidin-5-yl)piperidin-3-ol] | 757 nM
23 | CS(=O)(=O)c1cccc(Nc2nc(-c3cccc(C(=O)O)c3)nc3scnc23)c1 [Compound I-27, 3-[7-(3-Methanesulfonyl-phenylamino)-thiazolo[5,4-d]pyrimidin-5-yl]-benzoic acid] | 4610 nM
24 | COc1ccc(Nc2nc(-c3cccc(CCc4ccc(C(=O)O)cc4)c3)nc3scnc23)cc1OC [Compound I-33, 4-(3-(7-(3,4-Dimethoxyphenylamino)thiazolo[5,4-d]pyrimidin-5-yl)phenethyl)benzoic acid] | 350 nM
25 | COc1ccc(Nc2nc(-c3ccc(C(=O)NCCc4cc[nH]c(=O)c4)cc3)nc3scnc23)cc1OC [Compound I-23, 4-(7-(3,4-Dimethoxyphenylamino)thiazolo[5,4-d]pyrimidin-5-yl)-N-(2-(2-oxo-1,2-dihydropyridin-4-yl)ethyl)benzamide] | 930 nM
